We go through 1 compound from the NIST ThermoML archive (doi:10.1016/j.fluid.2013.05.008).

The conditions of data set [1]: Crystal; DTA.
Data set [2] can be described thus: Molar enthalpy of transition or fusion. The settings on record: Crystal; DSC.

Structures are written as SMILES. Numbers after ± are expanded uncertainties.

On to `CCc1ccc(CCOc2ccc(CC3SC(=O)NC3=O)cc2)nc1.Cl` (configuration not stated), for which, in data set [1], the Normal melting temperature turned out to be 195.62 ± 0.5 °C. Besides, the “Molar enthalpy of transition or fusion” value in data set [2] is 50.3 ± 1.4 kJ/mol.
